Data reported in patent publication US7476680B2, “Substituted heterocyclic compounds for treating multidrug resistance” (H. Lee Moffitt Cancer Center & Research Institute, Inc., priority 2000, dated 2009).

What was measured:
NIH-MDR1-G185 cells = test: Fluorescent substrate accumulation assay (BODIPY-FL Taxol); format: cell-based; conditions: BODIPY-FL Taxol 500 nM, modulator 10 micromolar, 40 min at 37° C.; fluorescence with modulator / without modulator
Experimental: Fluorescent Substrate Accumulation Assay
NIH-MDR1-G185 cells (obtained from M. Gottesman, NIH) were harvested and resuspended in RPMI-1640 containing L-glutamine, 10% Cosmic Calf Serum and penicillin-streptomycin. Cell suspension aliquots of 175 microliters (1×10^5 cells) were added to individual wells of a 96 well microtiter plate and preincubated for 15 min at 37° C. with 20 microliters MDR modulator diluted in cell culture media to give a final concentration of 10 micromolar. Control wells received no modulating agent. BODIPY-FL Taxol (Molecular Probes, Eugene, Oreg.) was added to each well in 10 microliter aliquots to give a final concentration of 500 nM and cells were incubated for 40 min at 37° C. Cells were centrifuged at 100×g for 5 min at 4° C. and the cell pellet washed with 200 microliters cold PBS to remove fluorescent medium from wells. Cells were centrifuged once more, media removed, and cells resuspended in 200 microliters cold PBS. Fluorescence accumulation was measured in a fluorescence plate reader fitted with an excitation filter of 485 nm and an emission filter of 538 nm. BODIPY-FL taxol accumulation in the cells was calculated as follows: Accumulation Index=(fluorescence in NIH-MDR1-G185 cells in the presence of modulator)/(fluorescence in NIH-MDR1-G185 cells in absence of modulator)

MDR1-ATPase = molecular target: T1, MDR1-ATPase (Homo sapiens, UniProt P08183); test: MDR1 ATPase assay (substrate potential for MDR1); format: biochemical; conditions: isolated Sf9 cell membranes; for Ki: half-maximum inhibition of MDR1-ATPase stimulated by 30-40 micromolar verapamil
T1 construct: made in house; host or cells: Sf9 insect cells (baculovirus); isolated membranes
T1 sequence (P08183 whole entry): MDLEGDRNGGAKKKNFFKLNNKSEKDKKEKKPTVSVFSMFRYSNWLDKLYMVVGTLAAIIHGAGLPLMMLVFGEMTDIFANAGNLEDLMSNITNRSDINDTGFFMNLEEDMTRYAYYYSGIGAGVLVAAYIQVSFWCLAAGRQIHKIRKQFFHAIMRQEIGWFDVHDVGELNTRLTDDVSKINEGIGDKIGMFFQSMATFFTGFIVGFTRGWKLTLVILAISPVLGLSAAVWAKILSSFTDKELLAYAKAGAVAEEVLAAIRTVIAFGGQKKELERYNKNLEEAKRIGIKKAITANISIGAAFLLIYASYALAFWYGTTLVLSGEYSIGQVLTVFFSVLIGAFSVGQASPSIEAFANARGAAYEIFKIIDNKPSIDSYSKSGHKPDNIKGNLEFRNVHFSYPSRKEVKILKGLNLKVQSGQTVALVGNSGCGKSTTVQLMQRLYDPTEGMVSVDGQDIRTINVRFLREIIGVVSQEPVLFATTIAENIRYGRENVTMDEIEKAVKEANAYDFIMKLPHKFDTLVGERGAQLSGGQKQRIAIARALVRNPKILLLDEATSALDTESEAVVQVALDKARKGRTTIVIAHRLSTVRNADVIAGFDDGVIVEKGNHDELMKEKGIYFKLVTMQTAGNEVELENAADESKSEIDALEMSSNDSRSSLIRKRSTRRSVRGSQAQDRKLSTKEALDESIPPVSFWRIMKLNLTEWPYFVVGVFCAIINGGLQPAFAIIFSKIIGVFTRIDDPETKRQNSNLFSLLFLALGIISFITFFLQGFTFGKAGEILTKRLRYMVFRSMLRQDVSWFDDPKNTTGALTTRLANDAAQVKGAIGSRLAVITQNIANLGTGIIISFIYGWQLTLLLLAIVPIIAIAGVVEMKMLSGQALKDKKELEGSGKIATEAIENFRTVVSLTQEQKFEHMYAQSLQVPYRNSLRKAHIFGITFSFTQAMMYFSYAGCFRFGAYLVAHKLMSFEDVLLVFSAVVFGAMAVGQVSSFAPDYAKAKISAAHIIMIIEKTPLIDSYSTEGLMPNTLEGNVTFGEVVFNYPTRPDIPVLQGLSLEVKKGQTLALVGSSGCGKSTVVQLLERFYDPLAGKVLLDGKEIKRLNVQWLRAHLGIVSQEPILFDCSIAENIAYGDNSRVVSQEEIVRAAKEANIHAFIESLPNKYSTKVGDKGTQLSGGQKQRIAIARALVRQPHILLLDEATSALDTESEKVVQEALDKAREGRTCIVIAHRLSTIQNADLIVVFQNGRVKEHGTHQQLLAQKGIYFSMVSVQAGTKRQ
Source text: Method for Measuring Substrate Potential for MDR1 (MDR1 ATPase assay)
Recombinant baculovirus carrying the human MDR1 gene was generated and Sf9 cells infected with virus. The virus-infected cells were harvested and their membranes isolated. MDR1-ATPase activity of the isolated Sf9 cell membranes was estimated by measuring inorganic phosphate liberation as previously described (B. Sarkadi, J. Biol. Chem., 1992, 267:4854-4858). The differences between the ATPase activities measured in the absence and presence of 100 micromolar vanadate were determined as activity specific to MDR1. MDR modulator concentrations causing half-maximum activation (Ka) or half-maximum inhibition of the MDR1-ATPase stimulated by 30-40 micromolar verapamil (Ki) were determined.

[1] = concentration causing half-maximum activation of MDR1-ATPase

Row | Compound | Accumulation Index (NIH-MDR1-G185 cells) | Substrate Potential Ka(MDR1-ATPase) (MDR1-ATPase; [1]) | Ki (MDR1-ATPase) [µM] | EC50 (MDR1-ATPase; concentration causing half-maximum activation of MDR1-ATPase, read-out: Substrate Potential Ka(MDR1-ATPase)) [µM]
1 | CC1(C(=O)NC(CCCc2ccccc2)CCCc2ccccc2)CCN(C[C@@H](O)COc2cccc3ncccc23)CC1 [Example 50, (R)-1-[2-hydroxy-3-(quinolin-5-yloxy)-propyl]-methylpiperidine-4-carboxylic acid [4-phenyl-1-(3-phenyl-propyl)-butyl]-amide] | 10 |  |  | 
2 | O=C(NC(CCCc1ccccc1)CCCc1ccccc1)C1CCN(C[C@@H](O)COc2cccc3ncccc23)CC1 [Example 5, (R)-1-[2-hydroxy-3-(quinolin-5-yloxy)-propyl]-piperidine-4-carboxylic acid [4-phenyl-1-(3-phenyl-propyl)-butyl]-amide] |  | no activation | 0.3 | 
3 | COc1cc(OC[C@H](O)CN2CCCC(C(=O)NC(CCCc3ccccc3)CCCc3ccccc3)C2)cc(OC)c1OC (stereo partly shown) [Example 15] |  | weak activation | > 50 | 
4 | O=C(NCCCCc1ccccc1)[C@H]1CN(C[C@@H](O)COc2cccc3ncccc23)CC[C@H]1C(=O)NCCCCc1ccccc1 (stereo in doubt) [Example 11, cis-(R)-1-[2-hydroxy-3-(quinolin-5-yloxy)-propyl]-piperidine-3,4-dicarboxylic acid bis-[(4-phenyl-butyl)-amide]] |  | no activation | 0.02 | 
5 | O=C(C1CCN(C[C@@H](O)COc2cccc3ncccc23)CC1)N(Cc1ccccc1)Cc1ccccc1 [Example 36, (R)-1-[2-hydroxy-3-(quinolin-5-yloxy)-propyl]-piperidine-4-carboxylic acid dibenzyl amide] |  | no activation | 1 | 
6 | O=C(NC1CCN(C[C@H](O)COc2cccc3ncccc23)CC1)C(CCCc1ccccc1)CCCc1ccccc1 (stereo in doubt) [Example 25, 5-phenyl-2-(3-phenyl-propyl)-pentanoic acid {1-[2-hydroxy-3-(quinolin-5-yloxy)-propyl]-piperidin-4-yl}-amide] |  |  | 0.01 | 0.005
7 | COc1cc(C(=O)C(=O)N2CCCC(C(=O)NC(CCCc3ccccc3)CCCc3ccccc3)C2)cc(OC)c1OC (stereo not shown) [Example 26, 1-(3,4,5-trimethoxyglyoxyl)-piperidine-3-carboxylic acid [4-phenyl-1-(3-phenyl-propyl)-butyl]-amide] |  | no activation | 0.5 | 
8 | (R)-1-[2-hydroxy-3-(quinolin-5-yloxy)-propyl]-piperidine-4-carboxylic acid [4-(3-pyridyl-1-(3-pyridyl-propyl)-butyl]-amide [Example 53] | 8 |  |  | 
9 | O=C(NC(CCCc1ccccc1)CCCc1ccccc1)C1CCCN(C[C@@H](O)COc2cccc3ncccc23)C1 (stereo partly shown) [Example 14] |  | no activation | 0.3 | 
